Like-named read-outs stand apart in the source and are kept apart here. Each block holds one molecule with its values, some of them ahead of it. Where a SMILES comes first, the peptide text is derived from it. Where no end group is shown, it is not given here. [ ]: non-standard residue; d: D form. 2Nal = N[C@@H](Cc1ccc2ccccc2c1)C(=O)O
Legend:
[1] = target: T1, Erbin PDZ (Homo sapiens, UniProt Q96RT1); assay: IC50 (nM) | Erbin PDZ | 2 nM | PDZ501 | Bio-Ac-GGWETWV (SEQ ID NO 687) | 37 nM
T1 construct: made in house; host or cells: E. coli
Experimental: (§1) Table printed on a drawing sheet, Fig. 12
(§2) The patent's description of the figure: FIG. 12. IC50 values indicating binding affinities of various peptides to PDZ domains
(§3) First copying reader's note: The first column (three lines per block: protein, accession, PDZ domain) is treated as one cell spanning its block; an empty ruled row above the IC50/SD head is left out; #### cells are spreadsheet overflow marks as printed; several heads and cells are cut off at the left by the print (ample, eptide No, EQ ID NO).
Where the first naming reader finds the target: head: IC50 (nM) | Erbin PDZ | 2 nM | PDZ501

[2] = target: T2, hZO1 PDZ1 (Homo sapiens, UniProt Q07157); assay: IC50 (nM) | hZO1 PDZ1 | 5 nM | B01-88 | Bio-GGWRWTTWL (SEQ ID NO 684) | 36 nM
T2 construct: Human ZO1 (NM_003257) PDZ1; GST; made in house
Experimental: as §1
Head of the field: IC50 (nM) | hZO1 PDZ1 | 5 nM | B01-88 | Bio-GGWRWTTWL (SEQ ID NO 684) | 36 nM
as §2, §3
Where the first naming reader finds the target: head: IC50 (nM) | hZO1 PDZ1 | 5 nM | B01-88

[3] = target: GST-MAGI-3 PDZ 2 (aa. 584-707 of SEQ ID NO:200) (human) [GST: P08515]; assay: competition ELISA: peptide blocks GST-PDZ binding to immobilized peptide
[4] = target: ERBIN PDZ domain (Homo sapiens, UniProt Q96RT1); assay: Competition ELISA, ERBIN PDZ-GST binding to immobilized biotinylated peptide; design: made in house; host or cells: E. coli; details: for fold less potent than Ac-WETWV (SEQ ID NO:225): Alanine scanning of WETWV peptide; for fold less potent than Ac-WETWV: Substitutions for tryptophan at the −1 position
Experimental: Binding affinities of the peptides for the ERBIN PDZ domain were determined as IC50 values using competition ELISAs. […] Assay plates were prepared by coating Maxisorp plates overnight at 4° C. with 65 μl of a 2 μg/ml solution of neutravidin in PBS. The plates were then blocked through addition of 65 μl of a 1% solution of bovine serum albumin (BSA) in PBS for 1 hour at room temperature, then washed 10 times with PBS containing 0.05% Tween-20. 65 μl of the amino-terminally biotinylated peptide PDZ 501 (TGWETWV; SEQ ID NO:222) was then added at a concentration of 100 nM in PBS with 0.5% BSA and 0.05% Tween-20 and incubated for 1 hour at room temperature. Simultaneously, binding reactions consisting of serial dilutions of the test compounds in PBS with 0.5% BSA and 0.05% Tween-20 containing 2 μg/ml ERBIN PDZ-GST fusion protein were incubated for 1 hour at room temperature. The plate coated with the immobilized peptide was again washed 10 times before 65 μl of each binding reaction was added to a well and incubated for 15 minutes at room temperature. The plates were again washed 10 times before being developed by incubating for 30 minutes with a 1:1000 dilution of anti-mouse HRP conjugated antibody and a 1:2000 dilution of a mouse anti-GST antibody in PBS with 0.5% BSA and 0.05% Tween-20. The plates were washed 10 times, then incubated with 100 μl HRP substrate for 5 minutes and the color developed through addition of 100 μl of 1 M H3PO4. The plates were read at 450 nm and the absorption fit to a binding curve using a least squares fit.
Binding affinities of the peptides for the ERBIN PDZ domain were determined as IC50 values using competition ELISAs. […] Assay plates were prepared by coating microwell plates overnight with neutravidin. The plates were then blocked through addition of BSA, and then amino-terminally biotinylated WETWV (SEQ ID NO:225) was then bound to the plates. Simultaneously, binding reactions consisting of serial dilutions of the test peptides with ERBIN PDZ-GST fusion proteins were performed. The plate coated with the immobilized WETWV (SEQ ID NO:225) was extensively washed before adding each binding reaction to the wells and briefly incubated. After further washing, anti-mouse HRP conjugated antibody and a mouse anti-GST antibody were added. The plates were then developed with HRP substrate and H3PO4, and then read at 450 nm. The absorption fit to a binding curve using a least squares fit. Thus the ability of the various peptides to inhibit ERBIN PDZ domain from binding its cognate was measured. […]

[5] = target: ERBIN PDZ-GST fusion protein (aa. 1217-1371 of SEQ ID NO:201) (human) [GST: P08515]; assay: competition ELISA: ERBIN PDZ-GST binding to immobilized biotin-WETWV
[6] = target: ERBIN PDZ-GST fusion protein (aa. 1217-1371 of SEQ ID NO:201) (human, UniProt P08515 1-218 = GST); assay: as above
[7] = ERBIN peptide truncations without N-terminal acylation
[8] = ERBIN peptide truncations with N-terminal acylation

T2 sequence (Q07157 23-110): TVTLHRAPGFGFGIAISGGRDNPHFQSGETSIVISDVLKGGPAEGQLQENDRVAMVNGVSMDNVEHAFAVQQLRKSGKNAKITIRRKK
T1 sequence (Q96RT1 1258-1412): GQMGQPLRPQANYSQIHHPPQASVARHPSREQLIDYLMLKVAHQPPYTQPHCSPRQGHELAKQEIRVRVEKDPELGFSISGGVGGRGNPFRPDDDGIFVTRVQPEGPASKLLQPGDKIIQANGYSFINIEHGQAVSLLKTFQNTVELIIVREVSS
ERBIN PDZ domain, sequence (Q96RT1 1258-1412): as above
ERBIN PDZ-GST fusion protein (aa. 1217-1371 of SEQ ID NO:201) (human) [GST: P08515], sequence (P08515 whole entry, the tested form may be a part): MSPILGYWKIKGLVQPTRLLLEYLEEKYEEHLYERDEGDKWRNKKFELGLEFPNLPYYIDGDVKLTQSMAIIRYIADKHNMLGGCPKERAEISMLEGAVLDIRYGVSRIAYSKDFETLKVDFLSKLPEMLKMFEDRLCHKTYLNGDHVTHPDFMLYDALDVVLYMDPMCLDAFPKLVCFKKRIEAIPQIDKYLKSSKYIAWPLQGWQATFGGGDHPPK
ERBIN PDZ-GST fusion protein (aa. 1217-1371 of SEQ ID NO:201), sequence (P08515 whole entry, the tested form may be a part): as above
GST-MAGI-3 PDZ 2 (aa. 584-707 of SEQ ID NO:200) (human) [GST: P08515], sequence (P08515 whole entry, the tested form may be a part): as above

IC50 [1]: 39700 nM | IC50 [2]: 28600 nM
Molecule: Ac-RETWL [22 | 01-02, SEQ ID NO 661 N^AC-RETWL]

IC50 [1]: 35500 nM | IC50 [2]: 47 ± 4 nM
Molecule: Ac-WGWTTWL [12 | 01-30, EQ ID NO 651 N^AC-WGWTTWL]

IC50 [3]: 2 µM
Molecule: GCGCSWV (peptide)

IC50 [2]: 2320 nM
Molecule: Ac-KITWL [25 | 01-06, SEQ ID NO 664 N^AC-KITWL]

fold less potent than H1N -GWETWV [4, 7]: 11.5 fold | IC50 ([4]; ERBIN peptide truncations without N-terminal acylation, read-out: IC50): 16.5 µM
Molecule: CC(C)[C@H](NC(=O)[C@H](Cc1c[nH]c2ccccc12)NC(=O)[C@@H](NC(=O)[C@@H](N)CCC(=O)O)[C@@H](C)O)C(=O)O [H1N -ETWV] (H-ETWV-OH; C-terminus assumed)

Molecule: Ac-WETAV [Ac-WETAV]
IC50 [4]: 34 µM | fold less potent than Ac-WETWV (SEQ ID NO:225) [4]: 69.3 fold | fold less potent than Ac-WETWV [4]: 69.3 fold

Molecule: CC(=O)N[C@@H](Cc1c[nH]c2ccccc12)C(=O)N[C@@H](CCC(=O)O)C(=O)N[C@H](C(=O)N[C@@H](Cc1ccc2ccccc2c1)C(=O)N[C@H](C(=O)O)C(C)C)[C@@H](C)O [Ac-WETNapV] (Ac-WET[2Nal]V-OH; C-terminus assumed)
IC50 [4]: 0.6 µM | fold less potent than Ac-WETWV [4]: 1.1 fold

IC50 [5]: 77.4 µM | fold less potent than Ac-GWETWV [5]: 81.5 fold
Molecule: Ac-TWY (peptide)

Molecule: Ac-GWETWV [Ac-GWETWV]
IC50 [4]: 0.9 µM | fold less potent than Ac-GWETWV [4, 8]: 1.0 fold

IC50 [1]: 3160 nM
Molecule: Ac-FETWL [3 | 01-08, SEQ ID NO 642 N^AC-FETWL]

Molecule: H-WETWV [H1N -WETWV]
IC50 [4]: 0.2 µM | fold less potent than H1N -GWETWV [4, 7]: 0.2 fold

IC50 ([4]; Small molecules that inhibit ERBIN PDZ domain from binding immobilized WETWV, read-out: IC50): 697 µM
Molecule: CC(C)C(NC(=O)C(Cc1cc2ccccc2[nH]1)NC(=O)c1ccc(-c2ccc([N+](=O)[O-])cc2)o1)C(=O)O (centres unmarked) [WV 58]

IC50 [5]: 77.8 µM | fold less potent than Ac-GWETWV [5]: 78.7 fold
Molecule: Ac-WV (peptide)

Molecule: Ac-AETWV [Ac-AETWV]
IC50 [4]: 4 µM | fold less potent than Ac-WETWV (SEQ ID NO:225) [4]: 8.2 fold

IC50 [1]: 52400 nM | IC50 [2]: 35 ± 5 nM
Molecule: Ac-WRHTTWL [11 | 01-29, EQ ID NO 650 N^AC-WRHTTWL]

fold less potent than Ac-GWETWV [4, 8]: 78.7 fold | IC50 ([4]; ERBIN peptide truncations with N-terminal acylation, read-out: IC50): 77.8 µM
Molecule: CC(=O)N[C@@H](Cc1c[nH]c2ccccc12)C(=O)N[C@H](C(=O)O)C(C)C [Ac-WV] (Ac-Trp-Val-OH; C-terminus assumed)

Molecule: Ac-WATWV [Ac-WATWV]
IC50 [4]: 14.8 µM | fold less potent than Ac-WETWV (SEQ ID NO:225) [4]: 30.3 fold

IC50 [5]: 4.9 µM | fold less potent than Ac-GWETWV [5]: 5.1 fold
B1: Ac-ETWV (peptide)
peptide: Ac-ETWV

IC50 [6]: 14.8 µM | fold less potent than Ac-WETWV [6]: 30.3 fold
B2: Ac-WATWV (peptide)
peptide: Ac-WATWV

IC50 [5]: 1.4 µM | fold less potent than H1N -GWETWV [5]: 1 fold
B3: H1N-GWETWV (peptide)
peptide: H-GWETWV-OH

IC50 [6]: 4 µM | fold less potent than Ac-WETWV [6]: 8.2 fold
B4: Ac-AETWV (peptide)
peptide: Ac-AETWV

IC50 [5]: 0.5 µM | fold less potent than Ac-GWETWV [5]: 0.5 fold | fold less potent than Ac-WETWV [5]: 1 fold
B5: Ac-WETWV (peptide)
peptide: Ac-WETWV

IC50 [5]: 0.9 µM | fold less potent than Ac-GWETWV [5]: 1 fold
B6: Ac-GWETWV (peptide)
peptide: Ac-GWETWV

IC50 [5]: 0.2 µM | fold less potent than H1N -GWETWV [5]: 0.2 fold
B7: H1N -WETWV (peptide)
peptide: H-WETWV-OH

IC50 [6]: 12.4 µM | fold less potent than Ac-WETWV [6]: 25.3 fold
B8: Ac-WEAWV (peptide)
peptide: Ac-WEAWV

IC50 [5]: 16.5 µM | fold less potent than H1N -GWETWV [5]: 11.5 fold
B9: H1N -ETWV (peptide)
peptide: H-ETWV-OH

— patent US20030148264A1, “Phage displayed PDZ domain ligands” (GENENTECH, INC., priority 2001, published 2003)
